Measured values reported in patent publication US12655171B2, “Compounds for activating invariant natural killer T-cells and methods of use in eliminating inflammatory senescent cells” (Deciduous Therapeutics, Inc., priority 2021, dated 2026).

Test system: human iTCR
Test: In vitro activation of human iTCR through Jurkat reporter cell line (JiNKT, GFP under NFkB promoter) with drug-loaded BWSTIM cells
Format: cell-based
Conditions: BWSTIM loaded 4 hours, co-culture with JiNKT 18 to 24 hours; FIG. 1
Method: In order to determine the human iTCR activation potential induced by the compounds described herein, a jurkat cell line (JiNKT) was transfected with the human iTCR, and GFP under the NFkB promoter (cell line licensed from the Medical University of Vienna). A BWS147 cell line (BWSTIM) was also transfected with CD80 and CD1d to act as the antigen-presenting cell.
(§1) DCD molecules or α-GalCer were both dissolved in DMSO at a 5 mg/mL stock solution. BWSTIM cells were loaded with DCD molecules or α-GalCer at varying concentrations for 4 hours at 37° C. at a concentration of 20 k cells/well in 200 μL of media in a u-bottom 96 well dish. BWSTIM cells were washed 2× with media, then incubated with JiNKT cells at a concentration of 80 k cells/well in a u-bottom 96 well dish. Cells were co-cultured for 18 to 24 hours. The percentage of cells expressing high levels of GFP was measured through flow cytometry (after gating out the mCD45+ BWSTIM cells).
A jurkat cell line (JiNKT) was transfected with the human iTCR, and GFP under the NFkB promoter. A BWS147 cell line (BWSTIM) was also transfected with CD80 and CD1d to act as the antigen-presenting cell. A mouse iNKT hybridoma cell line (DN3.2) was also used as the iNKT. […]
as §1, with “GVK” for “DCD”, “compounds” for “DCD molecules or α-GalCer at varying concentrations”, “for” for “for 18 to”, “cytometry. 1 μg/mL of molecule GVK1a, GVK1b, GVK1c, or GVK1f was incubated with BWSTIM+JiNKT, and compared to α-GalCer.” for “cytometry (after gating out the mCD45+ BWSTIM cells).”

Structure (SMILES)	EC50 of the dose response based on percentage GFP+ cells, compared to α-GalCer
CCCCCCCCCCCCCC[C@@H](O)[C@@H](O)[C@H](COC1OC(CO)C(O)C(O)C1O)NC(=O)CCCCCCCCCCC1CCOCC1 (some centres unmarked) [DCD-122]	lower EC50s compared to α-GalCer
CCCCCCCCCCCCCC[C@@H](O)[C@@H](O)[C@H](COC1OC(CO)C(O)C(O)C1O)NC(=O)CCCCCCCCCCC1CCN(C(=O)OC(C)(C)C)C1 (some centres unmarked) [DCD-128]	lower EC50s compared to α-GalCer
CCCCCCCCCCCCCC[C@@H](O)[C@@H](O)[C@H](COC1OC(CO)C(O)C(O)C1O)NC(=O)CCCCCCCCCCCC12CC(F)(C1)C2 (some centres unmarked) [DCD-113]	lower EC50s compared to α-GalCer
CCCCCCCCCCCCCC[C@@H](O)[C@@H](O)[C@H](COC1OC(CO)C(O)C(O)C1O)NC(=O)CCCCCCCCCCC12C3C4C5C3C1C5C42 (some centres unmarked) [DCD-114]	lower EC50s compared to α-GalCer
CCCCCCCCCCCCCC[C@@H](O)[C@@H](O)[C@H](COC1OC(CO)C(O)C(O)C1O)NC(=O)CCCCCCCCCCC1CN(C(=O)OC(C)(C)C)C1 (some centres unmarked) [DCD-125]	lower EC50s compared to α-GalCer
CCCCCCCCCCCCCC[C@@H](O)[C@@H](O)[C@H](COC1OC(CO)C(O)C(O)C1O)NC(=O)CCCCCCCCCCN1CCSCC1.Cl (some centres unmarked) [DCD-133]	lower EC50s compared to α-GalCer
CCCCCCCCCCCCCC[C@@H](O)[C@@H](O)[C@H](COC1OC(CO)C(O)C(O)C1O)NC(=O)CCCCCCCCOCC1CCOCC1 (some centres unmarked) [DCD-141]	lower EC50s compared to α-GalCer
CCCCCCCCCCCCCC[C@@H](O)[C@@H](O)[C@H](COC1OC(CO)C(O)C(O)C1O)NC(=O)CCCCCCCCCOC1CCOCC1 (some centres unmarked) [DCD-139]	lower EC50s compared to α-GalCer
CCCCCCCCCCCCCC[C@@H](O)[C@@H](O)[C@H](COC1OC(CO)C(O)C(O)C1O)NC(=O)CCCCCCCCCCC1(C)COC1 (some centres unmarked) [DCD-119]	lower EC50s compared to α-GalCer
CCCCCCCCCCCCCC[C@@H](O)[C@@H](O)[C@H](COC1OC(CO)C(O)C(O)C1O)NC(=O)CCCCCCCCCCN1CCS(=O)(=O)CC1 (some centres unmarked) [DCD-136]	lower EC50s compared to α-GalCer
CCCCCCCCCCCCCC[C@@H](O)[C@@H](O)[C@H](COC1OC(CO)C(O)C(O)C1O)NC(=O)CCCCCCCCCCN1CCOCC1.Cl (some centres unmarked) [DCD-130]	lower EC50s compared to α-GalCer
CCCCCCCCCCCCCC[C@@H](O)[C@@H](O)[C@H](COC1OC(CO)C(O)C(O)C1O)NC(=O)CCCCCCCCCCCCCCCCCCCCCCC1COC1 (some centres unmarked) [DCD-149]	lower EC50s compared to α-GalCer
CCCCCCCCCCCCCC[C@@H](O)[C@@H](O)[C@H](COC1OC(CO)C(O)C(O)C1O)NC(=O)CCCCCCCCCCCCCCCCCCCCCCC12CC(F)(C1)C2 (some centres unmarked) [DCD-148]	lower EC50s compared to α-GalCer
CCCCCCCCCCCCCC[C@@H](O)[C@@H](O)[C@H](COC1OC(CO)C(O)C(O)C1O)NC(=O)CCCCCCCCCCCCCCCCCCCCCC12CC(F)(C1)C2 (some centres unmarked) [DCD-151]	lower EC50s compared to α-GalCer
